Assay results from paper PMC7057948, “A genome-wide approach for identification and characterisation of metabolite-inducible systems” (Nature Communications, 2020).
Structures can show the parent of a compound that is named as a salt.

Columns and labels:
[1] = target: T1, PhhR (Cupriavidus necator, UniProt Q0K5I4); experiment: RFP reporter dose-response in C. necator H16, Hill fit; type: cell-based; details: read-out: Km^b
T1 construct: native full-length gene, divergent to phhA (H16_RS18365); reporter plasmid pEH137 (plasmid assigned by list order)
T1 sequence (Q0K5I4 1-234): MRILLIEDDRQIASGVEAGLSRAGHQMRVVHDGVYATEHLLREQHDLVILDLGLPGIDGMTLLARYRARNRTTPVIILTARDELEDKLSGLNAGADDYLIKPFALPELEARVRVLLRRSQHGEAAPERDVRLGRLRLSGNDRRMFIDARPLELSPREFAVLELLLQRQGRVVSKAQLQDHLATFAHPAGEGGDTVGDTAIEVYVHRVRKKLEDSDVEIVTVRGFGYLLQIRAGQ

[2] = tested on: HpdA; experiment: cells; design: species or system Cupriavidus necator H16; RFP reporter induction by transcription factor biosensor, fluorescence normalised to cell density, relative to primary effector; details: 6 h; relative to primary effector, C. necator, MM; read-out: % activation
Protocol: (§1) To screen the 441 combinations of inducer and biosensor for cross-reactivity, we employed an automated platform (see Methods section). Strains of C. necator harbouring the inducible systems were grown in MM and transferred to a 96-well microtiter plate format. After the inducers had been extracellularly added, cells were cultured for 6 h before RFP fluorescence and cell density were measured. […] The remaining six inducible systems were activated by one or more metabolites other than their cognate inducers. This cross-reactivity may be the result of either structural resemblance, a metabolic relationship or a combination thereof. For example, L-phenylalanine is converted into L-tyrosine by the phenylalanine 4-monooxygenase PhhA (H16_RS18365). Therefore, activation of the L-tyrosine-inducible system by L-phenylalanine is more likely to be due to biological conversion of the added compound into the primary effector rather than direct interaction of L-phenylalanine with HpdA. However, since the difference between the two molecules lies in a singly hydroxyl-group, an induction by structural resemblance cannot be entirely ruled out. The same applies to phenylglyoxylate that activated the benzoate-inducible system. Phenylglyoxylate is converted by C. necator into benzoate via a two-step reaction with benzaldehyde as intermediate compound. During the first reaction, carbon dioxide is generated that may also explain induction of the formate-inducible system by the structurally dissimilar phenylglyoxylate. Since carbon dioxide can subsequently be converted into formate, it is rational to postulate that the FdsR/PH16_RS03165-inducible system is activated in this case by its primary inducer. In addition to phenylglyoxylate, the benzoate-inducible system was activated by extracellular supplementation with cyclohexanecarboxylate and cumate. Cyclohexanecarboxylate shares both a structural resemblance to benzoate and downstream  Fig. 6 Orthogonality of inducible systems. a Cross-reactivity of a set of 21 inducible systems and their corresponding primary inducers. The heat map illustrates induction of reporter gene expression in the presence of the metabolite (in %) relative to the induction mediated by the corresponding primary effector. Measurements were taken 6 h after supplementation with inducer at a final concentration of 5 mM. Data are mean, n = 4. Source data are provided as a Source Data file. b Fluorescence output of individual cells of C. necator carrying pEH263 measured by flow cytometry. The vector pEH263 contains the 3,4-dihydroxybenzoate- and [compound left out]-inducible systems controlling expression of rfp and egfp, respectively. Fluorescence was determined in the absence of inducer (orange), in the presence of 3,4-dihydroxybenzoate (blue), [compound left out] (green), and both 3,4-dihydroxybenzoate and [compound left out] (purple). Effector concentrations correspond to their respective Km’s and fluorescence was measured 2 h after inducer addition.

[3] = tested on: T2, XdhR; experiment: RFP reporter dose-response in C. necator H16, Hill fit; type: cell-based, Cupriavidus necator; details: inducer concentration for half-maximal activation; extracellular inducer, minimal medium, 30 °C, 80 min; whole cells with chromosomal regulator copy; read-out: Km^b
T2 construct: native full-length gene, divergent to operon starting at H16_RS05055; reporter plasmid pEH154 (plasmid assigned by list order)

[4] = tested on: AcoR; experiment: cells; design: species or system Cupriavidus necator H16; RFP reporter induction by transcription factor biosensor, fluorescence normalised to cell density, relative to primary effector; details: 6 h; relative to primary effector, C. necator, MM; read-out: % activation
Protocol: as §1

[5] = tested on: BenM; experiment: cells; design: species or system Cupriavidus necator H16; RFP reporter induction by transcription factor biosensor, fluorescence normalised to cell density, relative to primary effector; details: 6 h; relative to primary effector, C. necator, MM; read-out: % activation
Protocol: as §1

[6] = target: T3, AcoR (Cupriavidus necator, UniProt P28614); experiment: cell-based; design: RFP reporter induction by transcription factor biosensor, single time-point fluorescence in LB, relative to primary effector; details: Escherichia coli TOP10; relative to primary effector, E. coli, LB; read-out: % activation
T3 construct: native full-length gene, divergent to operon starting at H16_RS19445; reporter plasmid pEH052 (plasmid assigned by list order)
T3 sequence (P28614 1-668): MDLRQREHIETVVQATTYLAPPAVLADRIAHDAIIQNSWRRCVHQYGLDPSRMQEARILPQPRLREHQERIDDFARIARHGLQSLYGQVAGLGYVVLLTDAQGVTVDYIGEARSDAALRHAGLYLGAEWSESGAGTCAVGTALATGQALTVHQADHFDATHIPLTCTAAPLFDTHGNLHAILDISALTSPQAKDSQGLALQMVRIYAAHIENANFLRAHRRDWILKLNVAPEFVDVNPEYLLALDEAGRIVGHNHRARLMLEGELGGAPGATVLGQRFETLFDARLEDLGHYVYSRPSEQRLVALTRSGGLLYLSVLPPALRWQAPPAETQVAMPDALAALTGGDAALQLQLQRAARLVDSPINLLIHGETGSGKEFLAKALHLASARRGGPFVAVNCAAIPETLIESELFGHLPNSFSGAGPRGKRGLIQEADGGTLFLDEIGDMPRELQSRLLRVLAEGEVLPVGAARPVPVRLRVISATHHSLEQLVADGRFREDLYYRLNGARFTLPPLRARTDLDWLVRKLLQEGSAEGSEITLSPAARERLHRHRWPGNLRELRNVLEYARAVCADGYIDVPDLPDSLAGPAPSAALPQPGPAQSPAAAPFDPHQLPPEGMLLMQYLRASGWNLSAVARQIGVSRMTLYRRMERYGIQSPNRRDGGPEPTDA
Description: (§2) TRs often recognise molecules that are structurally similar to their primary effectors. For example, isopropyl β-D-1-thiogalactopyranoside is a commonly used structural analogue of allolactose, employed to control the expression of genes regulated by LacI. Here, the TR’s specificity was investigated to identify previously uncharacterised ligand–TR interactions and consequently extend the biosensor application to the detection of structurally similar or metabolically related compounds. To do so, the library of 21 native and heterologous inducible systems was screened against 46 compounds using an integrated robotic platform, as described in the previous section. […] Similarly to the former orthogonality screen (Fig. 6a), it should be noted that activation of reporter gene expression by the extracellularly added compounds likely indicates a structural resemblance to the primary ligand, a metabolic relationship or a combination thereof. To shed light on their cause of system activation, cultures of E. coli carrying the functional formate-, [compound left out]-, benzoate-, 3,4-dihydroxybenzoate-, acetoin- and β-alanine-inducible systems, active in this host organism, were evaluated for the same cross-reactivity (Supplementary Table 5).  Fig. 3 C. necator native systems mediate controllable gene expression in E. coli and P. putida. Single time-point fluorescence measurements of a, b E. coli and c, d P. putida carrying the C. necator-inducible gene expression systems composed of TR and promoter a, c or ‘promoter only’ version b, d. The plasmids harbouring the individual system– or promoter–reporter gene constructs are indicated. RFP fluorescence output was determined in the absence of inducer (light purple and light blue) and 6 h after extracellular supplementation with the corresponding primary effector to a final concentration of 5 mM (dark purple and dark blue). Data are mean ± SD, n = 3, *p < 0.05, **p < 0.01, ***p ≤ 0.001, ****p ≤ 0.0001, unpaired two-tailed t-test. Source data are provided as a Source Data file. All strains used in this study are listed in Supplementary Table 7. E. coli TOP10 (Life Technologies) was used for cloning and plasmid propagation. For single time-point fluorescence measurements and flow cytometric analyses, bacterial strains were propagated in Luria-Bertani (LB) medium. To determine the dose–responses and to evaluate inducer TR cross-reactivity, C. necator was cultivated in MM containing 1 g/L NH4Cl, 9 g/L Na2HPO4·12H2O, 1.5 g/L KH2PO4, 0.2 g/L MgSO4·7H2O, 0.02 g/L CaCl2·2H2O and 0.0012 g/L (NH4)5[Fe(C6H4O7)2] with 1 mL/L trace element solution SL7 (1.3 mL/L 25% (w/v) HCl, 0.07 g/L ZnCl2, 0.1 g/L MnCl2·4H2O, 0.062 g/L H3BO3, 0.190 g/L CoCl2·6H2O, 0.017 g/L CuCl2·2H2O, 0.024 g/L NiCl2·6H2O and 0.036 g/L Na2MoO4·2H2O) supplemented with 0.4% (w/v) sodium gluconate. If required, antibiotics were added to the growth medium at the following concentrations: 12.5 µg/mL tetracycline or 25 µg/mL chloramphenicol for E. coli, 50 µg/mL chloramphenicol for C. necator and 25 µg/mL tetracycline for P. putida. For solid media preparation, 15 g/L agar was added.

[7] = target: T4, BenM (Cupriavidus necator, UniProt Q0KAA5); experiment: cell-based; design: RFP reporter induction by transcription factor biosensor, single time-point fluorescence in LB, relative to primary effector; details: Escherichia coli TOP10; relative to primary effector, E. coli, LB; read-out: % activation
T4 construct: native full-length gene, divergent to operon starting at H16_RS09790; reporter plasmid pEH148 (plasmid assigned by list order)
T4 sequence (Q0KAA5 1-305): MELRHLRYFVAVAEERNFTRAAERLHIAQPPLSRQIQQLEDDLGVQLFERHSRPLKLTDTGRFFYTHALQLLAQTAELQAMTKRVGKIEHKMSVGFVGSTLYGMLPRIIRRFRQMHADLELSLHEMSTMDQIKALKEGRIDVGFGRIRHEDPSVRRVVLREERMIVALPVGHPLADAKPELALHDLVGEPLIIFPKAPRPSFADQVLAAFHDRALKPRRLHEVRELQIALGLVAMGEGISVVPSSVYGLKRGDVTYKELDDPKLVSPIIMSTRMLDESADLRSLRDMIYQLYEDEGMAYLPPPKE
Description: as §2

[8] = target: FdsR (Cupriavidus necator, UniProt Q0KDY4); experiment: cell-based
Description: RFP reporter dose-response in C. necator H16, Hill fit on FdsR

[9] = tested on: T5, HpdA; experiment: RFP reporter dose-response in C. necator H16, Hill fit; type: cell-based, Cupriavidus necator; details: inducer concentration for half-maximal activation; extracellular inducer, minimal medium, 30 °C, 80 min; whole cells with chromosomal regulator copy; read-out: Km^b
T5 construct: native full-length regulator gene, divergent to operon starting at H16_RS24175; reporter plasmid pEH158 (plasmid assigned by list order)

[10] = tested on: T6, HpdR; experiment: as above; type: cell-based, Cupriavidus necator; details: inducer concentration for half-maximal activation; extracellular inducer, minimal medium, 30 °C, 80 min; whole cells with chromosomal regulator copy; read-out: Km^b
T6 construct: native full-length gene, divergent to operon starting at H16_RS18295; reporter plasmid pEH010 (plasmid assigned by exclusion)
Description: RFP reporter dose-response in C. necator H16, Hill fit on HpdR

[11] = target: T7, PcaQ (Cupriavidus necator, UniProt Q0JYV0); experiment: as above; type: cell-based; details: read-out: Km^b
T7 construct: native full-length gene, divergent to operon starting at H16_RS30145; reporter plasmid pEH161 (plasmid assigned by list order)
T7 sequence (Q0JYV0 1-317): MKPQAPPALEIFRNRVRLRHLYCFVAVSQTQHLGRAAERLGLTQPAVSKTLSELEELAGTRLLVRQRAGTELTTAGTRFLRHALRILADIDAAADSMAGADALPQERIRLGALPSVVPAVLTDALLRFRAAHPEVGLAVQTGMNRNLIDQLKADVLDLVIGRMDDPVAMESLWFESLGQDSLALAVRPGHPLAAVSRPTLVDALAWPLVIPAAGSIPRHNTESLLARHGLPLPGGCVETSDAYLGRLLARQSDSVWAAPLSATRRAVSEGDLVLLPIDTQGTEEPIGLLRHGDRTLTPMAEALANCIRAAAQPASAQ
Description: RFP reporter dose-response in C. necator H16, Hill fit on PcaQ

[12] = tested on: HpdR; experiment: cells; design: species or system Cupriavidus necator H16; RFP reporter induction by transcription factor biosensor, fluorescence normalised to cell density, relative to primary effector; details: 6 h; relative to primary effector, C. necator, MM; read-out: % activation
Protocol: as §1

[13] = tested on: OapR; experiment: cells; design: species or system Cupriavidus necator H16; RFP reporter induction by transcription factor biosensor, fluorescence normalised to cell density, relative to primary effector; details: 6 h; relative to primary effector, C. necator, MM; read-out: % activation
Protocol: as §1

[14] = target: T8, KynR (Cupriavidus necator, UniProt Q0K7Y0); experiment: RFP reporter dose-response in C. necator H16, Hill fit; type: cell-based; details: read-out: Km^b
T8 construct: gene H16_A2813; native full-length gene, divergent to operon starting at H16_RS14030; reporter plasmid pEH136 (plasmid assigned by list order)
T8 sequence (Q0K7Y0 1-160): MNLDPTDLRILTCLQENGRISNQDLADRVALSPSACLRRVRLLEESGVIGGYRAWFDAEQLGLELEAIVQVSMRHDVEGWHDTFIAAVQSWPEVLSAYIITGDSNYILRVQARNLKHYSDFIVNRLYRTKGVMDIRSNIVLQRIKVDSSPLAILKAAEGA

FdsR, sequence (Q0KDY4 1-364): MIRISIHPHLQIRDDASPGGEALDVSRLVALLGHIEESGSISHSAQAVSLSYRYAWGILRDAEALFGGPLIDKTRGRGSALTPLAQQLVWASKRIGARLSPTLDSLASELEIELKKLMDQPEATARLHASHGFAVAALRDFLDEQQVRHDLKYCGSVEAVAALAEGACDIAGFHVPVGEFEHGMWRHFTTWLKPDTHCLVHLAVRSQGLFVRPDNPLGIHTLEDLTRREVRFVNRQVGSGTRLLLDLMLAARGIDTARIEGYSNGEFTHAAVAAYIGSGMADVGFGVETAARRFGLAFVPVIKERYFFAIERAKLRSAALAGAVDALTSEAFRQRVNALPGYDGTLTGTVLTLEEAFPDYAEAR

N[C@@H](Cc1ccccc1)C(=O)O [compound 11, L-phenylalanine]
EC50 [1]: 16.9 ± 2.2 µM
activity at 5000 µM [2]: 77%

O=c1[nH]c(=O)c2[nH]cnc2[nH]1 [compound 3, Xanthine]
EC50 [3]: 13 ± 1.4 µM

CC(C)c1ccc(C(=O)O)cc1 [cumate]
activity at 5000 µM [4]: 18%
activity at 5000 µM [5]: 100%
activity at 5000 µM [6]: 0%
activity at 5000 µM [7]: 2%

O=CO [compound 2, Formate]
EC50 [8]: 130 ± 7 µM

N[C@@H](Cc1ccc(O)cc1)C(=O)O [compound 13, L-tyrosine]
EC50 [9]: 9.9 ± 2.2 µM

O=C(O)C1CCCCC1 [compound 14, Cyclohexanecarboxylate]
activity at 5000 µM [5]: 110%
activity at 5000 µM [7]: 4.3%

O=C(O)CCO [compound 10, 3-Hydroxypropanoate]
EC50 [10]: 13.2 ± 1.9 µM

O=C(O)c1ccc(O)c(O)c1 [compound 16, 3,4-Dihydroxybenzoate]
EC50 [11]: 8.63 ± 0.4 µM

C=CC(=O)O [Acrylate]
activity at 5000 µM [12]: 113%
activity at 5000 µM [13]: 68%

Nc1ccccc1C(=O)C[C@H](N)C(=O)O [compound 9, L-kynurenine]
EC50 [14]: 2.64 ± 0.18 µM
